Test results as given in article PMC6154737, “Leishmanicidal Activity and Structure-Activity Relationships of Essential Oil Constituents” (Molecules : A Journal of Synthetic Chemistry and Natural …, 2017).
Values after ≈ are worked out from the molar mass of the structure shown. Read-outs that look alike come from different tables or passages of the source.

Tests used:
[1] = test system: L. donovani promastigotes; parameters: method as in PMID 18095647; settings: cited from earlier work
[2] = test system: Leishmania amazonensis promastigotes; experiment: In vitro leishmanicidal activity (resazurin viability) against promastigotes; type: cell-based; settings: for Activity against L. amazonensis promastigotes in words: concentrations up to 1000.0 μg mL^−1
Description: Culture of L. amazonensis (LTCP 9667 obtained by Giudice et al.) promastigotes were maintained at 24 °C in Schneider′s Drosophila medium (Sigma-Aldrich, St. Louis, MO, USA; pH 6.7) supplemented with 10% (v/v) inactivated fetal bovine serum (FBS, Gibco by Thermo Fisher Scientific, Carlsbad, CA, USA), ampicillin 500 mg m^−1, 1% and gentamicin 40 mg mL^−1, 0.1% (Sigma-Aldrich, St. Louis, MO, USA).
Promastigotes of L. amazonensis in log-phase growth were distributed in a 96-well plate (5 × 10^5 cells/well) and treated with the evaluated compounds solubilized in dimethyl sulfoxide (DMSO, Sigma-Aldrich, St. Louis, MO, USA) and diluted in Schneider′s medium in different concentrations (between 0.0 and 1000.0 μg mL^−1) and incubated for 24 h at 24 °C in a biochemical oxygen demand (BOD) incubator. Promastigotes incubated in the absence of test compounds were used as a negative control. Promastigotes treated with Amphotericin B (Sigma-Aldrich, St. Louis, MO, USA) were used as a positive control. The cellular viability of the parasites was evaluated using the colorimetric method of resazurin, adapted from Kulshrestha et al.. Briefly, after the treatment time, 50 μL of resazurin (2 mM mL^−1 in phosphate-buffered saline (PBS)) (Sigma-Aldrich, St. Louis, MO, USA) was added per well and the plates were again incubated for 6 h at 24 °C, then read in a spectrophotometer (Synerg H1, Biotek, Winooski, VT, USA) at 570 and 595 nm. Absorbance was used to calculate cell viability based on the following equation:(1) Viability (%)=Abs.570 nm−(Abs.595 nm × RO) test/Abs.570 nm –(Abs.595 nm × RO) control × 100 wherein:(2) RO= OD medium with resazurin in 570 nm−OD medium without resasurin in 570 nm/OD medium with resazurin in 595 nm−OD medium without resazurin in 595 nm
The IC50 values were obtained by a non-linear regression analysis from the viability values using the GraphPad Prism 5.0 program. All experiments were performed in triplicate from three independent experiments and the data were expressed as mean ± standard deviation (±SD).

L929 fibroblasts = experiment: Cytotoxicity on L929 fibroblasts (MTT assay); type: cell-based; settings: intensity scale of Rodrigues et al.; for Cytotoxicity class (symbol) at 50 µg mL^−1: 50 µg mL^−1, 24 h; for Cytotoxicity class (symbol) at 50 µg mL^−1 / Cytotoxicity class (symbol) at 100 µg mL^−1: MTT; for Cytotoxicity class (symbol) at 100 µg mL^−1: 100 µg mL^−1, 24 h
Description: (§1) Culture of the mouse fibroblast cell line (L929, ATCC CCL-1) were maintained in Dulbecco′s Modified Eagle Medium (DMEM, Sigma-Aldrich, St. Louis, MO, USA) supplemented with 10% heat-inactivated FBS and 1% streptomycin/penicillin (5000 units + 5 mg mL^−1, Sigma-Aldrich, St. Louis, MO, USA), and kept in a humid atmosphere at 37 °C and 5% CO2.
(§2) Fibroblasts were distributed in 96-well plates (2 × 10^4 cells/well) and incubated for 24 h in a 5% CO2 atmosphere at 37 °C. After this period, the medium was removed and the adhered cells were treated with the compounds at concentrations of 50.0 and 100.0 μg mL^−1 for 24 h under the same incubation conditions. Untreated cells were used as controls and considered with 100% cell viability. After the treatment period, cell viability was determined by MTT assay as described in ISO 10993-5 [50], with modifications. For this, the cell monolayer was washed twice with PBS (pH 7.4), and then 200 μl MTT (0.5 mg mL^−1 in PBS, Sigma-Aldrich, St. Louis, MO, USA) was added to each well. The plates were again incubated under the same conditions as listed above, for a period of 3 h. After the incubation time, the MTT was aspirated and the formazan crystals were solubilized in 200 μL of DMSO. After 10 min, the optical density (OD) was measured on a microplate reader at the wavelength of 570 nm. The results were expressed as percentage of viability according to the following equation:(3) Viability=Absorbance (treated cell)/Absorbance (control cell) × 100
(§3) Each experiment was conducted in quadruplicate and repeated at least three times. Data were expressed as mean ± standard deviation (±SD).

[3] = Cytotoxicity on L929 fibroblasts (MTT assay); type: cell-based; settings: mouse, MTT, mean ± SD; for viability at 24 h, 50 µg mL^−1: 50 µg mL^−1, 24 h; for viability at 24 h, 100 µg mL^−1: 100 µg mL^−1, 24 h
Description: as §1, §2, §3

L. chagasi promastigotes = settings: cited from earlier work
L. panamensis = test system: L. panamensis; parameters: method as in earlier work; settings: cited from earlier work
[4] = test system: L. amazonensis promastigotes; settings: cited from earlier work
[5] = test system: promastigotes of L. infantum; parameters: method as in PMID 24365244; settings: doses up to 400 μg mL^−1; cited from earlier work
[6] = test system: promastigotes of L. major; parameters: method as in PMID 24365244; settings: doses up to 400 μg mL^−1; cited from earlier work
[7] = test system: promastigotes of L. tropica; parameters: method as in PMID 24365244; settings: doses up to 400 μg mL^−1; cited from earlier work
[8] = test system: promastigotes of L. infantum chagasi; parameters: method as in PMID 27591136; settings: up to the dose of 750 μg mL^−1; cited from earlier work
[9] = Leishmania amazonensis, 24 h, promastigotes, 24 h incubation, resazurin method, mean ± SD of three independent experiments in triplicate, read-out: IC50
[10] = Leishmania amazonensis, 24 h, promastigotes, 24 h incubation, resazurin method, mean ± SD of three independent experiments in triplicate, read-out: IC50 (µg mL^−1)
[11] = L. chagasi promastigotes, ref 28
[12] = Leishmania amazonensis, 24 h, read-out: IC50 (µg mL^−1)

Row | Compound | IC50 [2, 9] [µM] | IC50 [2, 10] [µg/mL] | Cytotoxicity class (symbol) at 50 µg mL^−1 (L929 fibroblasts) | Cytotoxicity classification in words at 50.0 μg mL^−1 (L929 fibroblasts) | Cytotoxicity class (symbol) at 100 µg mL^−1 (L929 fibroblasts) | viability at 24 h, 50 µg mL^−1 ([3]; L929 fibroblast cells) [%] | viability at 24 h, 100 µg mL^−1 ([3]; L929 fibroblast cells) [%] | IC50 (L. chagasi promastigotes; [11]) [µg/mL] | also measured
1 | CC1=CCC2C(C1)C2(C)C (stereo not shown) [Compound 3-Carene, 4,7,7-trimethylbicyclo[4.1.0]hept-3-ene] | 532 ± 136 | 72.5 ± 18.5 | ** (Non-cytotoxic (viability >80%)) | non-cytotoxic | * (Moderate cytotoxicity (viability between >30% and <50%)) | 84.1 ± 6.4 | 48.7 ± 6.7 | – | IC50 [1]: 27.0 µg/mL (≈ 198 µM); Cytotoxicity classification in words at 100.0 μg mL^−1 (L929 fibroblasts): moderate cytotoxicity
2 | C=C(C)[C@@H]1CC=C(C)C(=O)C1 [(−)-Carvone, (5R)-2-methyl-5-prop-1-en-2-ylcyclohex-2-en-1-one] | 1300 ± 113 | 195 ± 16.9 | – | – | – | – | – | > 300.0 | viability at 24 h, 50 µg mL^−1 [3]: 65.1 ± 4.7%; viability at 24 h, 100 µg mL^−1 [3]: 58.2 ± 4.2%
3 | C[C@@H]1[C@H](O)[C@@H](C)/C=C/C=C/C=C/C=C/C=C/C=C/C=C/[C@H](O[C@@H]2O[C@H](C)[C@@H](O)[C@H](N)[C@@H]2O)C[C@@H]2O[C@](O)(C[C@@H](O)C[C@@H](O)[C@H](O)CC[C@@H](O)C[C@@H](O)CC(=O)O[C@H]1C)C[C@H](O)[C@H]2C(=O)O [Amphotericin B, reference compound] | 0.054 ± 0.01 | 0.05 ± 0.01 | – | – | – | – | – | – | –
4 | Cc1ccc(C(C)C)c(O)c1 [Thymol, 5-methyl-2-propan-2-ylphenol] | 178 ± 24.6 | 26.8 ± 3.7 | – | – | – | 64.5 ± 4 | 58.5 ± 6.7 | – | IC50 (L. panamensis): 194.3 µg/mL (≈ 1290 µM); IC50 ([4]; L. amazonensis): 22.6 µg/mL (≈ 150 µM)
5 | CC(C)[C@@H]1CC[C@@H](C)C[C@H]1O [(−)-Menthol, (1R,2S,5R)-5-methyl-2-propan-2-ylcyclohexan-1-ol] | 1270 ± 76.8 | 198 | ** (Non-cytotoxic (viability >80%)) | non-cytotoxic | ** (Non-cytotoxic (viability >80%)) | 83.8 ± 8 | 81.2 ± 2.4 | – | IC50 ([2]; promastigotes, 24 h incubation, resazurin method, mean ± SD of three independent experiments in triplicate, listed as (–)-Menthol (7)): 198.9 ± 12.0 µg/mL
6 | C=CCc1ccc(O)c(OC)c1 [Eugenol, 2-methoxy-4-prop-2-enylphenol] | – | – | – | – | – | 78.1 ± 7 | 63.1 ± 1.7 | – | IC50 ([2]; Leishmania amazonensis, 24 h): 505 ± 37.8 µM; IC50 [2, 12]: 82.9 ± 6.2 µg/mL; IC50 (L. chagasi promastigotes; promastigote forms of L. chagasi): 56.1 µg/mL (≈ 342 µM)
7 | CC1(C)[C@@H]2CC[C@@]1(C)[C@H](O)C2 [Isoborneol, (1R,3R,4R)-4,7,7-trimethylbicyclo[2.2.1]heptan-3-ol] | 1230 ± 63.5 | 190 ± 9.8 | – | – | – | 73.3 ± 9.4 | 72.9 ± 7.5 | – | Leishmanicidal activity in words [5]: No leishmanicidal activity was found; Leishmanicidal activity in words [6]: No leishmanicidal activity was found; Leishmanicidal activity in words [7]: No leishmanicidal activity was found
8 | C=C[C@](C)(O)CCC=C(C)C [(−)-Linalool, (3R)-3,7-dimethylocta-1,6-dien-3-ol] | 1790 ± 156 | 276 ± 24 | – | – | – | 65.7 ± 8.2 | 66.7 ± 7.8 | – | Changes in the viability of promastigotes in words [8]: did not identify changes in the viability; IC50 ([4]; L. amazonensis promastigotes): 0.0043 µg/mL (≈ 0.0279 µM)
9 | Cc1ccc(C(C)C)cc1O [Carvacrol, 2-methyl-5-propan-2-ylphenol] | – | – | – | – | * (Moderate cytotoxicity (viability between >30% and <50%)) | 51.3 ± 3 | 46.1 ± 2.9 | 28.0 (≈ 186 µM) | IC50 ([2]; Leishmania amazonensis, 24 h): 169 ± 16 µM; IC50 [2, 12]: 25.4 ± 2.4 µg/mL; Cytotoxicity classification in words at 100.0 μg mL^−1 (L929 fibroblasts): moderate cytotoxicity; IC50 (L. chagasi promastigotes; L. chagasi promastigotes, ref 27): 2.3 µg/mL (≈ 15.3 µM); IC50 ([4]; L. amazonensis promastigotes, 72 h incubation, p-nitrophenol phosphate): 15.3 µg/mL (≈ 102 µM)
10 | Cc1ccc(C(C)C)cc1 [p-Cymene, 1-methyl-4-propan-2-ylbenzene] | > 7450 | > 1000 | ** (Non-cytotoxic (viability >80%)) | non-cytotoxic | ** (Non-cytotoxic (viability >80%)) | 91.2 ± 6.6 | 87.1 ± 6.7 | 149.1 (≈ 1110 µM) | Activity against L. amazonensis promastigotes in words [2]: no effect on the viability; Activity against L. amazonensis promastigotes in words ([2]; listed as p-cymene): did not exhibit any activity
